Numbered stars: 1 amine (or outer) side, 2 acyl side, 3 side chain; on linkers, the order of the positions; unused ones are H or OH. Bridge positions count the residues as written; N and C are the ends. Square brackets hold non-standard residues; d marks the D form. Peptide text beside a SMILES is read from it. * marks the point of attachment. ξ: configuration not given here. Asp(3S-OH) = N[C@H](C(=O)O)[C@H](O)C(=O)O; Thr(4-Cl) = N[C@H](C(=O)O)[C@H](O)CCl; ξAsp(3ξ-OH) = NC(C(=O)O)C(O)C(=O)O; X3 = O=C(C(N[*:1])C(O)CCl)[*:2]; X1 = CCCCCCCCC[C@@H](O)CC(=O)*; X2 = CCCCCCCCCCCC(O)CC(=O)*; dDab = NCC[C@@H](N)C(=O)O; Dab = NCC[CH](N)C(=O)O; Orn = NCCC[CH](N)C(=O)O; hSer = N[CH](CCO)C(=O)O; Dhb = C/C=C(\N)C(=O)O
What was measured:
[1] = tested on: Sheep erythrocytes; test: Erythrocyte toxicity (sheep RBC hemolysis, hemoglobin release); type: cell-based; conditions: 37° C. 1 hr, FIG. 1 and 2
Experimental: Erythrocyte Toxicity: Sheep red blood cell (RBC) hemolysis was used to assess erythrocyte toxicity of the CLPs and AmB. RBCs (MicroBio Products, Inc., Salt Lake City, Utah) were washed four times with phosphate-buffered-saline (PBS) by centrifugation at 800× g for 10 min and adjusted to 1×10^8 cells/ml as previously described by Chavanet, P., V. Joly, D. Rigaud, J. Bolard, C. Carbon, and P. Yeni. 1994. Influence of diet on experimental toxicity of amphotericin B deoxycholate. Antimicrob. Agents Chemother. 38(5):963-968. RBCs and a 2× concentration of SR-E, ST-B or SS-A in PBS were mixed in a 1:1 ratio and incubated at 37° C. for 1 hr. After incubation, cells were pelleted by centrifugation at 800× g for 10 min and the supernatant was collected and the absorbance at 550 nm was determined. […] Distilled water and PBS were used as lysis and hemoglobin retention controls, respectfully, as described by National Committee for Clinical Laboratory Standards. 1992. Reference method for broth dilution antifungal susceptibility testing of yeasts; proposed standard, NCCLS document M27-P (ISBN 1-56238-186-5). NCCLS, Villanova.

[2] = tested on: pokeweed mitogen (PWM)-induced lymphocyte proliferation; test: PWM-induced lymphocyte proliferation ([3H]-thymidine incorporation); type: cell-based, human
Experimental: Lipodepsipeptide for Immunosuppression Experiments: SR-E was purified as previously described in Bidwai, A. P., Bachmann, R. C. and Takemoto, J. Y., "Mechanism of action of Pseudomonas syringae phytotoxin syringomycin". Plant Physiol. 83:39-43 (1987). A stock solution (10 mg per ml) was prepared in RPMI1640 culture media, aliquoted and stored frozen at -20°.
Lymphocyte stimulation: Lymphocyte stimulation was performed with three different mitogens: phytohemagglutinin (PHA), pokeweed mitogen (PWM), and monoclonal antibody to CD3 (anti-CD3). […]
Mitogen-induced lymphocyte proliferation: Peripheral blood mononuclear cells (MNC) (containing lymphocytes and monocytes) were separated by Ficoll-Hypaque density-gradient centrifugation using techniques well known in the art. Mitogen-induced lymphocyte proliferation was determined as previously described in Singh, V. K., "Stimulatory effect of corticotropin-releasing neurohormone on human lymphocyte proliferation and interleukin-2 receptor expression". […]
[^3 H]-thymadine Incorporation: Cells were pulse-labeled for 4 hours with 0.5 μCi/well of [^3 H]methyl-thymidine (spec. act.=25 Ci/mmol from Amersham Intl.). […] To each vial, 2 ml of CytoScint fluid (ICN Biomedicals) was dispensed and the radioactivity determined using a liquid scintillation counter (Tri-Carb, Packard). […]

| Compound | erythrocyte toxicity (lysis, hemoglobin release) [1] | inhibition of PWM response ([2]; 1.14 μM) | suppression of PWM response ([2]; 5.72 μM, p=0.017) |
| --- | --- | --- | --- |
| C/C=C1\NC(=O)C(C(C)O)NC(=O)C(CCCN)NC(=O)C(CCO)NC(=O)CNC(=O)C(CCN)NC(=O)C(NC(=O)CC(O)CCCCCCCCCCC)COC(=O)C(C(O)CCl)NC(=O)C(C(O)C(=O)O)NC1=O (stereo not drawn) [ST-B, Syringotoxin B] (X2-S[Dab]G[hSer][Orn]T[Dhb][ξAsp(3ξ-OH)][X3]; ester 1-C; configuration not given here) | least toxic of the three CLPs |  |  |
| C/C=C1\NC(=O)[C@H](Cc2ccccc2)NC(=O)[C@H](CCCN=C(N)N)NC(=O)[C@@H](CCN)NC(=O)[C@H](CCN)NC(=O)[C@@H](CO)NC(=O)[C@@H](NC(=O)C[C@H](O)CCCCCCCCC)COC(=O)[C@H]([C@H](O)CCl)NC(=O)[C@H]([C@H](O)C(=O)O)NC1=O [SR-E, Syringomycin-E] (X1-S[dS][Dab][dDab]RF[Dhb][Asp(3S-OH)][Thr(4-Cl)]; ester 1-C) |  | significantly inhibited | 60% |
